{
  "source": "patent US10676514B2",
  "about": "“CDCA1-derived peptide and vaccine containing same” (ONCOTHERAPY SCIENCE, INC., priority 2014, dated 2020)",
  "key": {"[1]": {"tested_on": "peptide-pulsed C1R-A11 cells", "assay": "IFN-gamma ELISPOT assay of peptide-induced CTLs (HLA-A*1101)", "type": "cell-based, human", "details": "CTLs induced from HLA-A*1101-positive donors, peptide-pulsed C1R-A11 vs control", "text": "Monocyte-derived dendritic cells (DCs) were used as the antigen-presenting cell to induce a cytotoxic T lymphocyte (CTL) response against peptides presented on human leukocyte antigens (HLAs). As described in the other sections, DCs were generated in vitro (Nakahara S et al., Cancer Res 2003, 63(14): 4112-8). Specifically, peripheral-blood mononuclear cells isolated from healthy volunteers (HLA-A*1101-positive) with the Ficoll-Paque plus solution (Pharmacia) were separated by attaching to plastic tissue culture dishes (Becton Dickinson) and concentrated as a monocyte fraction. The monocyte-concentrated population was cultured in the presence of 1000 IU/ml granulocyte macrophage colony-stimulating factor (R&D System) and 1000 IU/ml interleukin(IL)-4 (R&D System) in an AIM-V medium (Invitrogen) containing 2% heat-inactivated autologous serum (AS). After seven days of culturing, the cytokine-induced DCs were pulsed with 20 micro-g/ml each of the synthesized peptides in an AIM-V medium at 37 degrees C. for three hours in the presence of 3 micro-g/ml beta 2-microglobulin. The generated cells appeared to express on their cell surface DC-associated molecules such as CD80, CD83, CD86 and HLA class II (data not shown). Next, these peptide-pulsed DCs were inactivated by X-ray irradiation (20 Gy), and mixed in a 1:20 ratio with autologous CD8^+ T cells obtained by positive selection using the CD8 Positive Isolation Kit (Dynal). These culture products were seeded in a 48-well plate (Corning). Each well was made to contain 1.5×10^4 peptide-pulsed DCs, 3×10^5 CD8^+ T cells and 10 ng/ml IL-7 (R&D System) in 0.5 ml of the AIM-V/2% AS medium. Three days later, these culture products were added with a final concentration of 20 IU/ml IL-2 (CHIRON). On day 7 and day 14, T cells were further stimulated with peptide-pulsed autologous DCs. The DCs were prepared every time by the same method as above. On day 21, after the third peptide stimulation, CTLs were examined against the peptide-pulsed C1R-A11 cells by a human interferon (IFN)-gamma enzyme-linked immunospot (ELISPOT) assay (Tanaka H et al., Br J Cancer 2001, 84(1): 94-9; Umano Y et al., Br J Cancer 2001, 84(8): 1052-7; Uchida N et al., Clin Cancer Res 2004, 10(24): 8577-86; Suda T et al., Cancer Sci 2006, 97(5): 411-9; Watanabe T et al., Cancer Sci 2005, 96(8): 498-506).\n(§1) Specifically, peptide-pulsed C1R-A11 (1×10^4 cells/well) was prepared as the stimulator cell. The induced CTLs, i.e., CTL lines and CTL clones, were used as the responder cell. The IFN-gamma ELISPOT assay and IFN-gamma ELISA were performed according to the manufacturer's manual."}, "peptide-pulsed C1R-A11": {"tested_on": "peptide-pulsed C1R-A11", "assay": "IFN-gamma ELISA of CTL lines and CTL clones (HLA-A*1101)", "type": "cell-based, human", "details": "for IFN-gamma production of CTL lines: peptide-pulsed vs non-pulsed target cells, HLA-A*1101", "experimental": "CTLs were propagated in culture using methods similar to those disclosed by Riddell et al. (Walter E A et al., N Engl J Med 1995, 333(16): 1038-44; Riddell S R et al., Nat Med 1996, 2(2): 216-23). The CTLs were co-cultured in a total of 25 ml AIM-V medium containing 5% AS (AIM-V/5% AS) and 40 ng/ml anti-CD3 antibody with two types of Mitomycin C-treated human B lymphoblastoid cell lines at 5×10^6 cells/flask. One day after beginning of the culturing, 120 IU/ml IL-2 was added to the culture. On days 5, 8 and 11, a fresh AIM-V/5% AS medium containing 30 IU/ml IL-2 was added to the culture (Tanaka H et al., Br J Cancer 2001, 84(1): 94-9; Umano Y et al., Br J Cancer 2001, 84(8): 1052-7; Uchida N et al., Clin Cancer Res 2004, 10(24): 8577-86; Suda T et al., Cancer Sci 2006, 97(5): 411-9; Watanabe T et al., Cancer Sci 2005, 96(8): 498-506).\nDilution of CTLs was carried out to make 0.3, 1 and 3 cells/well in 96 round-bottomed microtiter plates (Nalge Nunc International). The CTLs were co-cultured with two types of Mitomycin C-treated human B lymphoblastoid cell lines at 1×10^4 cells/well in a total of 150 micro-l/well AIM-V/5% AS medium with 30 ng/ml anti-CD3 antibody and 125 IU/ml IL-2. Ten days later, IL-2 was added to the medium at 50 micro-l/well to reach a final concentration of 125 IU/ml. On day 14, the CTL activity was tested, and the CTL clones were propagated using the same method as described above (Uchida N et al., Clin Cancer Res 2004, 10(24): 8577-86; Suda T et al., Cancer Sci 2006, 97(5): 411-9; Watanabe T et al., Cancer Sci 2005, 96(8): 498-506).\nas §1"}},
  "note": "Entries after “also recorded” stand apart in the source; their conditions may differ.",
  "data": [
    {"sequence": "AAHQEALMK (a peptide derived from CDCA1) [SEQ ID NO: 13]", "values": [
      {"measurement": "peptide-specific CTL activity (IFN-gamma production)", "setting": "[1]; listed as CDCA1-A1-9-157", "value": "potent IFN-gamma production"},
      {"measurement": "peptide-specific CTL activity (IFN-gamma production)", "setting": "[1]; listed as CDCA1-A11-9-157", "value": "potent IFN-gamma production; also recorded: significant specific CTL activity"},
      {"measurement": "IFN-gamma production of CTL lines", "setting": "peptide-pulsed C1R-A11", "value": "potent IFN-gamma production"}
    ]},
    {"sequence": "CQLEVQLYQK (a peptide derived from CDCA1) [SEQ ID NO: 39]", "values": [
      {"measurement": "peptide-specific CTL activity (IFN-gamma production)", "setting": "[1]; listed as CDCA1-A11-10-289", "value": "potent IFN-gamma production; also recorded: significant specific CTL activity"},
      {"measurement": "peptide-specific CTL activity (IFN-gamma production)", "setting": "[1]; listed as CDCA1A11-10-289", "value": "potent IFN-gamma production"}
    ]},
    {"sequence": "GADGKNLTK (a peptide derived from CDCA1) [SEQ ID NO: 21]", "values": [
      {"measurement": "peptide-specific CTL activity (IFN-gamma production)", "setting": "[1]; listed as CDCA1-A11-9-25", "value": "potent IFN-gamma production; also recorded: significant specific CTL activity"},
      {"measurement": "IFN-gamma production of CTL lines", "setting": "peptide-pulsed C1R-A11", "value": "potent IFN-gamma production"}
    ]},
    {"sequence": "IVDSPEKLK (a peptide derived from CDCA1) [SEQ ID NO: 14]", "values": [
      {"measurement": "peptide-specific CTL activity (IFN-gamma production)", "setting": "[1]; listed as CDCA1-A11-9-244", "value": "potent IFN-gamma production; also recorded: significant specific CTL activity"}
    ]},
    {"sequence": "IVLQEGNSQK (a peptide derived from CDCA1) [SEQ ID NO: 40]", "values": [
      {"measurement": "peptide-specific CTL activity (IFN-gamma production)", "setting": "[1]; listed as CDCA1-A11-10-203", "value": "potent IFN-gamma production; also recorded: significant specific CTL activity"}
    ]},
    {"sequence": "KAAEDSYAK (a peptide derived from CDCA1) [SEQ ID NO: 9]", "values": [
      {"measurement": "peptide-specific CTL activity (IFN-gamma production)", "setting": "[1]; listed as CDCA1-A11-9-439", "value": "potent IFN-gamma production; also recorded: significant specific CTL activity"},
      {"measurement": "IFN-gamma production of CTL lines", "setting": "peptide-pulsed C1R-A11", "value": "potent IFN-gamma production"}
    ]},
    {"sequence": "KILTGADGK (a peptide derived from CDCA1) [SEQ ID NO: 12]", "values": [
      {"measurement": "peptide-specific CTL activity (IFN-gamma production)", "setting": "[1]; listed as CDCA1-A1-9-21", "value": "potent IFN-gamma production"},
      {"measurement": "peptide-specific CTL activity (IFN-gamma production)", "setting": "[1]; listed as CDCA1-A11-9-21", "value": "potent IFN-gamma production; also recorded: significant specific CTL activity"}
    ]},
    {"sequence": "KINKKHEDVK (a peptide derived from CDCA1) [SEQ ID NO: 58]", "values": [
      {"measurement": "peptide-specific CTL activity (IFN-gamma production)", "setting": "[1]; listed as CDCA1-A1-10-358", "value": "potent IFN-gamma production"},
      {"measurement": "peptide-specific CTL activity (IFN-gamma production)", "setting": "[1]; listed as CDCA1-A11-10-358", "value": "significant specific CTL activity"},
      {"measurement": "peptide-specific CTL activity (IFN-gamma production)", "setting": "[1]; listed as CDCA1A11-10-358", "value": "potent IFN-gamma production"},
      {"measurement": "IFN-gamma production of CTL lines", "setting": "peptide-pulsed C1R-A11", "value": "potent IFN-gamma production"}
    ]},
    {"sequence": "KSNISEKTK (a peptide derived from CDCA1) [SEQ ID NO: 17]", "values": [
      {"measurement": "peptide-specific CTL activity (IFN-gamma production)", "setting": "[1]; listed as CDCA1-A11-9-213", "value": "potent IFN-gamma production; also recorded: significant specific CTL activity"}
    ]},
    {"sequence": "KTEENSFKR (a peptide derived from CDCA1) [SEQ ID NO: 19]", "values": [
      {"measurement": "peptide-specific CTL activity (IFN-gamma production)", "setting": "[1]; listed as CDCA1-A1-9-335", "value": "potent IFN-gamma production"},
      {"measurement": "peptide-specific CTL activity (IFN-gamma production)", "setting": "[1]; listed as CDCA1-A11-9-335", "value": "potent IFN-gamma production; also recorded: significant specific CTL activity"}
    ]},
    {"sequence": "NAAHQEALMK (a peptide derived from CDCA1) [SEQ ID NO: 45]", "values": [
      {"measurement": "peptide-specific CTL activity (IFN-gamma production)", "setting": "[1]; listed as CDCA1-A1-10-156", "value": "significant specific CTL activity"},
      {"measurement": "peptide-specific CTL activity (IFN-gamma production)", "setting": "[1]; listed as CDCA1-A11-10-156", "value": "potent IFN-gamma production"}
    ]},
    {"sequence": "NSFKRLMIVK (a peptide derived from CDCA1) [SEQ ID NO: 30]", "values": [
      {"measurement": "peptide-specific CTL activity (IFN-gamma production)", "setting": "[1]; listed as CDCA1-A11-10-339", "value": "potent IFN-gamma production; also recorded: significant specific CTL activity"},
      {"measurement": "IFN-gamma production of CTL lines", "setting": "peptide-pulsed C1R-A11", "value": "potent IFN-gamma production"}
    ]},
    {"sequence": "SFKRLMIVKK (a peptide derived from CDCA1) [SEQ ID NO: 53]", "values": [
      {"measurement": "peptide-specific CTL activity (IFN-gamma production)", "setting": "[1]; listed as CDCA1-A11-10-340", "value": "potent IFN-gamma production; also recorded: significant specific CTL activity"}
    ]},
    {"sequence": "SQEIFLNLK (a peptide derived from CDCA1) [SEQ ID NO: 6]", "values": [
      {"measurement": "peptide-specific CTL activity (IFN-gamma production)", "setting": "[1]; listed as CDCA1-A11-9-419", "value": "potent IFN-gamma production; also recorded: significant specific CTL activity"},
      {"measurement": "IFN-gamma production of CTL clones", "setting": "peptide-pulsed C1R-A11; CTL clones by limiting dilution, peptide-pulsed C1R-A11, listed as CDCA1-A11-9-419", "value": "Potent IFN-gamma production"},
      {"measurement": "IFN-gamma production of CTL lines", "setting": "peptide-pulsed C1R-A11", "value": "potent IFN-gamma production"}
    ]},
    {"sequence": "TADILCPKAK (a peptide derived from CDCA1) [SEQ ID NO: 56]", "values": [
      {"measurement": "peptide-specific CTL activity (IFN-gamma production)", "setting": "[1]; listed as CDCA1-A1-10-106", "value": "significant specific CTL activity"},
      {"measurement": "peptide-specific CTL activity (IFN-gamma production)", "setting": "[1]; listed as CDCA1-A11-10-106", "value": "potent IFN-gamma production"}
    ]},
    {"sequence": "TAELKRKMFK (a peptide derived from CDCA1) [SEQ ID NO: 35]", "values": [
      {"measurement": "peptide-specific CTL activity (IFN-gamma production)", "setting": "[1]; listed as CDCA1-A11-10-452", "value": "potent IFN-gamma production; also recorded: significant specific CTL activity"}
    ]},
    {"sequence": "VTTINQEIQK (a peptide derived from CDCA1) [SEQ ID NO: 33]", "values": [
      {"measurement": "peptide-specific CTL activity (IFN-gamma production)", "setting": "[1]; listed as CDCA1-A1-10-391", "value": "no specific IFN-gamma production"},
      {"measurement": "peptide-specific CTL activity (IFN-gamma production)", "setting": "[1]; listed as CDCA1-A11-10-391", "value": "specific IFN-gamma production was not observed"}
    ]}
  ]
}
